In ChEMBL document CHEMBL1201862, “PubChem BioAssay data set” (2004):
Active and inactive are the calls of the source.

What was measured:
[1] = blockers of SFLLRN-triggered platelet ATP secretion – cell-based, human platelets, luminescence, dry powder, dose response (AID 493100); type: functional
[2] = Luminescence Cell-Based Dose Response Follow up to Identify Inhibitors of Platelet Dense Granule Release. [Related pubchem assays (depositor defined):AID1663, AID1678, AID1889, AID2519]; type: functional
[3] = SFLLRN-induced P-Selectin Platelet Surface Expression Measured in Cell-Based System Using Flow Cytometry - 2016-03_Inhibitor_Dose_DryPowder_Activity_Set3. [Related pubchem assays (depositor defined):AID1678]; type: functional
[4] = system: Jurkat; experiment: blockers of NF-kB activation in T cells – Jurkat, luciferase reporter, luminescence, B- and T-cell, dose response (AID 489004); type: functional, cell-based; settings: Homo sapiens;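 note: NF-kB luciferase reporter Jurkat cells stimulated with PMA plus ionomycin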
[5] = Shn3 3'UTR reporter signal decrease – cell-based, Clone20 osteoblasts, firefly luciferase, cherry-pick, set 2, Schnurri-3 inhibitor project, dose response (AID 720490); type: functional;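 note: actives lower the luminescence signal as inhibitors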
[6] = loss of viability in HepG2 cells – cell-based, CellTiter-Glo, cherry-picked, cytotoxicity control for Shn3 inhibitor project, dose response (AID 624134); type: functional
[7] = target: COUP transcription factor 2 (Homo sapiens, UniProt P24468); experiment: Luminescence-based cell-based high throughput dose response assay to identify inhibitors of COUP-TFII (NR2F2).; type: functional;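 note: HEK293 cells transiently cotransfected with COUP-TFII expression vector and reporter; luciferase reporter luminescence driven by COUP-TFII from the pX2-168 reporter plasmid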
COUP transcription factor 2, sequence (P24468 whole entry): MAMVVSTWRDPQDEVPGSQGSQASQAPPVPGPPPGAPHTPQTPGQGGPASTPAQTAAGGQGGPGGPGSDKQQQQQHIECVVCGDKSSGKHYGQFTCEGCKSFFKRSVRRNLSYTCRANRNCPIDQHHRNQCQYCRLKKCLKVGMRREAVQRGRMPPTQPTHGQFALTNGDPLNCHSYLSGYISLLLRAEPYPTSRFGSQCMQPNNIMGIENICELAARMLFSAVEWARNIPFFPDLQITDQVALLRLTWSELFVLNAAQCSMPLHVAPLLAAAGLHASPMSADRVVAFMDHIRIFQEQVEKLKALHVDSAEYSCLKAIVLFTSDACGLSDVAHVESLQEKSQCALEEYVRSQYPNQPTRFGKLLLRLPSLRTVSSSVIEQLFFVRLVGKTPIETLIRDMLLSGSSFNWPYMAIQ

[8] = decrease of insulin promoter-GFP reporter – imaging, high-content screening, mouse beta cells (AID 1628); type: functional; settings: MIN6
[9] = system: INS1; experiment: INS-1E survival protection against cytokine death – cell-based, luminescence, retest, dose response (AID 449756); type: functional; settings: Rattus norvegicus;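 note: cell death triggered by IL-1 beta plus TNF-alpha plus IFN-gamma mixture; protective hits raise ATP signal compared with cytokine alone wells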
[10] = non-specific 3'UTR reporter inhibition in Clone20-Shn3RL – cell-based, Renilla luciferase, cherry-picked, counter-screen for Shn3 inhibitor project, dose response (AID 624133); type: functional
[11] = reduction of Shn3 3'UTR-driven luciferase in osteoblasts – cell-based, Clone20 osteoblasts, firefly luciferase, cherry-picked, dose response (AID 624132); type: functional;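 note: firefly luciferase luminescence from reporter carrying the Shn3 3'UTR in osteoblasts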
[12] = MIN6 cell viability loss – mouse insulinoma, cytotoxicity control, dose response (AID 2122); type: functional;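 note: confirmatory high-throughput counterscreen run to flag cytotoxic compounds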
[13] = HEK-293T viability loss, compound-treated – cell-based, uHTS hits, cytotoxicity control for B/T-cell NF-kB inhibitor project, dose response (AID 489019); type: functional;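 note: IC50 reflects cytotoxicity as loss of cell viability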
[14] = target: T1, Serine/threonine-protein phosphatase (Candida dubliniensis (strain CD36 / CBS 7987 / NCPF 3949 / NRRLY-17841) (Yeast), UniProt B9W6M3); experiment: blockers of CaCl2-induced CDRE-lacZ signaling – S. cerevisiae, luminescence, secondary, dose response (AID 2388); type: functional, cell-based;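 note: yeast reporter cells carrying a calcineurin-responsive lacZ construct stimulated with calcium chloride; luminescent beta-galactosidase reporter signal in whole cells rather than isolated phosphatase activity; potency for inhibition where a drop in reporter signal means calcineurin blockade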
T1 sequence (B9W6M3 whole entry): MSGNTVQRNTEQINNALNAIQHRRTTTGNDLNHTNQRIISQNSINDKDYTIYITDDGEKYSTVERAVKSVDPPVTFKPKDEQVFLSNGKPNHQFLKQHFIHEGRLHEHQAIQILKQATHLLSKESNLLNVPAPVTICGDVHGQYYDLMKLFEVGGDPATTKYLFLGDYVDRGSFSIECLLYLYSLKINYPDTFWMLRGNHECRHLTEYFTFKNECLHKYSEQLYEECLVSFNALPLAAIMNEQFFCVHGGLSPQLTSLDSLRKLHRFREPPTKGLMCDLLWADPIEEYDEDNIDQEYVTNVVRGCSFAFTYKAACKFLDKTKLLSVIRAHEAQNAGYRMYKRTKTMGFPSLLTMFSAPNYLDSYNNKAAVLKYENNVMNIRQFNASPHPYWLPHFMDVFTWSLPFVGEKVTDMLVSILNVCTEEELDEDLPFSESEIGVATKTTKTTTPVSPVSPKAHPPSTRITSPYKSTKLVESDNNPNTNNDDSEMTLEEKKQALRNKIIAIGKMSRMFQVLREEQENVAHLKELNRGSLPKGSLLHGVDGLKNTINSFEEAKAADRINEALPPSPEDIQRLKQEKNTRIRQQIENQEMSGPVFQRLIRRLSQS

[15] = fluconazole-exposed Candida albicans growth modulators – fluorescence, retest, confirmation (AID 2467); type: functional, cell-based
[16] = target: T1, Serine/threonine-protein phosphatase; experiment: Fluorescence Cell-Based Secondary Assay to Identify Inhibitors of Calcineurin. [Related pubchem assays (depositor defined):AID1979, AID2007]; type: functional
[17] = NIH-3T3 fibroblast cytotoxicity, dose response, cytotoxicity control, cell-based, fluorescence, Alamar Blue, secondary assay (AID 2327); type: functional;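 note: NIH-3T3 mouse fibroblasts cultured with fluconazole at 8 µg/mL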
[18] = target: ATP-dependent molecular chaperone HSP82 (Candida albicans (strain WO-1) (Yeast), UniProt C4YTQ8); experiment: steroid-induced GRE reporter decrease in yeast – S. cerevisiae, luminescence, Hsp90 inhibitor project, dose response (AID 2400); type: functional, cell-based;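 note: beta-galactosidase luminescence from glucocorticoid response element reporter as proxy for Hsp90 function; inhibitor potency where signal loss means Hsp90 inhibition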
ATP-dependent molecular chaperone HSP82, sequence (C4YTQ8 whole entry): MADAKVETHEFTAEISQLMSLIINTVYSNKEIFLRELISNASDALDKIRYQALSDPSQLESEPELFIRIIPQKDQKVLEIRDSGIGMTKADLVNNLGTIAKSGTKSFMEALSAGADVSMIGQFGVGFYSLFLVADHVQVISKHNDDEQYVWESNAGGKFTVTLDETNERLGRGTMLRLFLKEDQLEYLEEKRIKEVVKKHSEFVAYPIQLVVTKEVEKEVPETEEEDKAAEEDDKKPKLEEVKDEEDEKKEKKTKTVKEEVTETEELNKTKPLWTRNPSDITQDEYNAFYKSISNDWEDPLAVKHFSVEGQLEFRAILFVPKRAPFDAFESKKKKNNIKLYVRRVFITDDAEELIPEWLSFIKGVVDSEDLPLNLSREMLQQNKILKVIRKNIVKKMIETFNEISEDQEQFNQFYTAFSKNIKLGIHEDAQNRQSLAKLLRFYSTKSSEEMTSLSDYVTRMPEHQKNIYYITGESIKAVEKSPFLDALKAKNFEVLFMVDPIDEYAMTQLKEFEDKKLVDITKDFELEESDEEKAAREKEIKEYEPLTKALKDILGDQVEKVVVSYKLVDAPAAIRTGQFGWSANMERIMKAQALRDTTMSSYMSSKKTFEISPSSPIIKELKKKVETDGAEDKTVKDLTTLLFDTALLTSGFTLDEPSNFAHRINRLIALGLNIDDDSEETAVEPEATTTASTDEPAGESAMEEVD

For COc1ccc(C(=O)Nc2cccc(NC(C)=O)c2)cc1, the AC50 [1] was 12.8 µM (active), the EC50 [2] was 3.96 µM (active) and the AC50 [3] was 3.53 µM (active).

With Cn1nc(CC(=O)Nc2ccc3c(c2)OCCO3)c2ccccc2c1=O the IC50 [4] was > 80 µM (inactive), the AC50 [5] was 1.36 µM (active) and the AC50 [6] was 55.8 µM (active). For the same molecule, the IC50 [7] was 6.56 µM (active), the IC50 [8] was 0.797 µM (active) and the AC50 [9] was 2.77 µM (active). The AC50 [10] was 3.62 µM (active), the AC50 [11] was 0.899 µM (active) and the IC50 [12] was 0.552 µM (active). The IC50 [13] was > 80 µM (inactive).

In the case of COc1ccc(-n2nc(C(=O)NCC(=O)N3CCN(c4ccccc4)CC3)c3ccccc3c2=O)c(OC)c1, the EC50 [14] is reported as > 180 µM (inactive), the EC50 [15] is reported as 0.819 µM (active) and the EC50 [16] is reported as > 285 µM (inactive). For the same molecule, the EC50 [17] was > 160 µM (inactive) and the EC50 [18] was > 160 µM (inactive).
